# Laboratory results: paper PMC2864539 (Cancer research, 2010)
# Assays:
# human COX-2 = molecular target: T1, human COX-2 (Homo sapiens, UniProt P35354); assay: [[…]-14C]arachidonic acid conversion, radio-TLC; format: biochemical
# T1 sequence (P35354 18-604): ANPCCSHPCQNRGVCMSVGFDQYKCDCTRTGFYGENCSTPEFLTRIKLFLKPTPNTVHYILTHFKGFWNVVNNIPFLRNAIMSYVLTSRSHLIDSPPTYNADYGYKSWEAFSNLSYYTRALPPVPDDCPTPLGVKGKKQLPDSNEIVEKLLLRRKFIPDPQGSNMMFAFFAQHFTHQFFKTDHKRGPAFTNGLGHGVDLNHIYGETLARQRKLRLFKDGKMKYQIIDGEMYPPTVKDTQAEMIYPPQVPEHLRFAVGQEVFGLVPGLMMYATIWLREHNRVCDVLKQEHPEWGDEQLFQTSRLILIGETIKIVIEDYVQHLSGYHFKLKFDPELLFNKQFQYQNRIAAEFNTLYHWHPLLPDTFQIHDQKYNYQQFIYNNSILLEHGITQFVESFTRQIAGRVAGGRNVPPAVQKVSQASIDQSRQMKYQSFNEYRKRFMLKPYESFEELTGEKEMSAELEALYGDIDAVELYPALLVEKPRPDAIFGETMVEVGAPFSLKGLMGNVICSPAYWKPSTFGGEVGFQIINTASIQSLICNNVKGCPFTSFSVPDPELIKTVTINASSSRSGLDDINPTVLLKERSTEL
# ovine COX-1 = molecular target: T2, ovine COX-1 (Ovis aries, UniProt P05979); assay: [[…]-14C]arachidonic acid conversion, radio-TLC; format: biochemical
# T2 sequence (P05979 25-600): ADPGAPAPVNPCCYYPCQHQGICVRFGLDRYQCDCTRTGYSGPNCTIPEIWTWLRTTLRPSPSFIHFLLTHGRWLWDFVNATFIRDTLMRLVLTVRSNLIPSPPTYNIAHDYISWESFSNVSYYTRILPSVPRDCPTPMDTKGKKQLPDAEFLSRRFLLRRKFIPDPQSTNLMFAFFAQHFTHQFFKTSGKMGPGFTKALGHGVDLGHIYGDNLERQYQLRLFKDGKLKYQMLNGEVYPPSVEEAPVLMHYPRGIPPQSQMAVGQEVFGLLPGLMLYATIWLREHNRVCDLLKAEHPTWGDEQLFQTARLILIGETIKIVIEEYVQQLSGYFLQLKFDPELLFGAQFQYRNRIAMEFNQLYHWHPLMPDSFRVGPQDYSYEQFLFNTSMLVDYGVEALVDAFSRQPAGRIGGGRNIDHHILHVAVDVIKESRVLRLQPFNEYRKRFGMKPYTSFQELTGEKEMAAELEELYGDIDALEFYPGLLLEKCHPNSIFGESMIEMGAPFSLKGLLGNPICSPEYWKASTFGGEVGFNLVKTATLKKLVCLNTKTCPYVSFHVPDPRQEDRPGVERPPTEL
compound,measurement,setting,value
COc1ccc2c(c1)c(CC(=O)NCCNC(=O)c1ccc(C(=O)[O-])c(C3=c4cc5c6c(c4Oc4c3cc3c7c4CCCN7CCC3)CCC[N+]=6CCC5)c1)c(C)n2C(=O)c1ccc(Cl)cc1 [compound 3],IC50,human COX-2,> 4 µM
same,IC50,ovine COX-1,> 66 µM
